Reference: article PMC6747455, “Active Site Architecture and Reaction Mechanism Determination of Cold Adapted β-D-galactosidase from Arthrobacter sp. 32cB” (International Journal of Molecular Sciences, 2019)

Assays:
ArthβDG [1] = target: T1, ArthβDG (Arthrobacter sp. 32cB, UniProt A0A023UGN9); experiment: hydrolysis in crystal, product seen by X-ray; format: biochemical; conditions: crystal soaked 1 min
T1 construct: recombinant, pBAD/Myc-His A vector (pBAD-Bgal32cB), E. coli LMG 194 host; ion exchange and size exclusion; five-domain protein, 110 kDa; functional dimer; GH2 family; catalytic residues E441 and E517

ArthβDG [2] = target: T1, ArthβDG; experiment: hydrolysis in crystal, blue coloration; format: biochemical; conditions: 3 to 20 molar excess; blue within 3 min; galactose found in the structure
[3] = target: ArthβDG_E441Q mutein (β-D-galactosidase from Arthrobacter sp. 32cB, E441Q) (Arthrobacter sp. 32cB); experiment: crystal structure; crystals grown in 25–45% Tacsimate, pH 6.0–8.0, seeded; space group P3121, one protein monomer in the asymmetric unit; dimer shown in Figure 2

T1 sequence (A0A023UGN9 1-1010): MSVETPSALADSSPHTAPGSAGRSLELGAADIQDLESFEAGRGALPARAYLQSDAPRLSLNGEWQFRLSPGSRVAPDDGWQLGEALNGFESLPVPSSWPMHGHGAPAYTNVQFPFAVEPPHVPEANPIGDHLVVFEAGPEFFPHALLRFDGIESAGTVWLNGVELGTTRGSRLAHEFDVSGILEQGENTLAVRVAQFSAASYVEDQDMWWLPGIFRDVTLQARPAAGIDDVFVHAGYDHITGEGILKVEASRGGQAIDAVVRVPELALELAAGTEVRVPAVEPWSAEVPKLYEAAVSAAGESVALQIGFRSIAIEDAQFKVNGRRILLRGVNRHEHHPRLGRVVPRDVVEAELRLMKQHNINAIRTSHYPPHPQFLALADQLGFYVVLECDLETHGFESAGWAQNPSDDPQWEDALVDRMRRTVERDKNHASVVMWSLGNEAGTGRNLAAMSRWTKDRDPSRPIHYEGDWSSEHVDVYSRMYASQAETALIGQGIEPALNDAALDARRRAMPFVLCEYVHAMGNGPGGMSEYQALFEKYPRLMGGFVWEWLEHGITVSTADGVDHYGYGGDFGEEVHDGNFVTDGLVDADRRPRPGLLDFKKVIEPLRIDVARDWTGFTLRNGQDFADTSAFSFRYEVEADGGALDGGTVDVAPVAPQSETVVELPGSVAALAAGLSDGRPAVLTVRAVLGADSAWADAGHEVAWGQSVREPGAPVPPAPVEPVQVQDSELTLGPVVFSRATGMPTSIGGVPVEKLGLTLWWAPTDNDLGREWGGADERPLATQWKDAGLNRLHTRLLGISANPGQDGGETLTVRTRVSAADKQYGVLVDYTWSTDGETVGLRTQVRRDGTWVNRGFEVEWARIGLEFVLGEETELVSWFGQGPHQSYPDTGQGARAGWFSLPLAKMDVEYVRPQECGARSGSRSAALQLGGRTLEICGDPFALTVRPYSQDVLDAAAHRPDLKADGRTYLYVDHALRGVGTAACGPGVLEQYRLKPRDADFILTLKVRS

Molecule: OC[C@H]1O[C@@H](O[C@H]2[C@H](O)[C@@H](O)C(O)O[C@@H]2CO)[C@H](O)[C@@H](O)[C@H]1O (stereo partly drawn) [LAC, lactose]
- hydrolysis in crystal, product seen by X-ray (ArthβDG [1]): the active enzyme performed hydrolysis of lactose in crystal

Molecule: OC[C@H]1O[C@@H](Oc2c[nH]c3ccc(Br)c(Cl)c23)[C@H](O)[C@@H](O)[C@H]1O [X-gal, 5-bromo-4-chloro-3-indolyl-β-D-galactopyranoside]
- hydrolysis in crystal, blue coloration (ArthβDG [2]): the enzyme in the crystal was in its active form and performed hydrolysis of X-gal

Molecule: ArthβDG_E441Q mutein (β-D-galactosidase from Arthrobacter sp. 32cB, E441Q) (enzyme)
- stoichiometry N [3]: 2
